Legend:
[1] = Triglyceride lowering in a person ingesting L-glutamine; assay type: in vivo; details: one person, baseline 500 mg/dL; 30 g per day as an aqueous solution, ingested; after three months
Procedure: The person ingested 30 g of L-glutamine per day as an aqueous solution. After three months of L-glutamine administration, the person's triglyceride blood level was measured at 150 mg/dL.

[2] = HA1C lowering in a person ingesting L-glutamine; assay type: in vivo; details: one person, baseline 6.9%; 30 g per day as an aqueous solution, ingested; after three months
Procedure: The person ingested 30 g of L-glutamine per day as an aqueous solution. After three months of L-glutamine administration, the person's Hb A1C level was measured at 6.1%.

For `NC(=O)CC[C@H](N)C(=O)O` [L-glutamine], the triglyceride blood level [1] was 150 mg/dL and the “glycolated hemoglobin level (Hb A1C level)” value [2] was 6.1%.
